Columns and labels:
[1] = 25° C.; cited from earlier work
MS2 bacteriophage [2] = test: Virus killing efficiency, plaque assay (Example 9); assay type: cell-based
E. coli [3] = test: Bacterial killing efficiency at low silver ion concentration (Example 3); assay type: cell-based
Source text: This example describes the method of measuring the bacterial killing efficiency of the composition in comparison to silver ion, when low concentration of silver ion is used. […] Synthetic challenge water contains all the ions as prescribed by US NSF for challenge water studies. Source of carbonate ion is chosen one amongst the following: sodium carbonate, potassium carbonate or ammonium carbonate or a combination thereof. Source of Ag^+ is chosen one amongst the following: silver nitrate, silver acetate, silver sulfate, silver fluoride or a combination thereof. After one hour of standing, 1 mL from the samples was plated along with agar on a sterile petridish using pour plate method.

E. coli [4] = test: Bacterial killing efficiency in sea salt containing water (Example 2); assay type: cell-based; conditions: Ag^+ 50 ppb (composition with CO3^2− 20 ppm), input 1×10^5 CFU/mL, 1 h standing
Procedure: In an aspect, 100 mL of synthetic water (typically containing E. coli concentration of 1×10^5 CFU/mL, unless otherwise mentioned) with Ag^+ (50 ppb) and Ag^+ (50 ppb)/CO3^2− (20 ppm) was separately shaken with different concentrations of sea salt. […] Synthetic challenge water contains all the ions as prescribed by US NSF for challenge water studies. Typically, one hour of standing time, unless otherwise mentioned, is provided for the exposure of microorganisms to the biocidal composition. After one hour of standing, 1 mL from the samples was plated along with agar on a sterile petridish using the pour plate method.

E. coli [5] = conditions: cited from earlier work
S. aureus (MTCC 96) = test: S. aureus killing efficiency (Example 6); assay type: cell-based
Procedure: In an aspect, 100 mL of synthetic water (typically containing E-coli concentration of 1×10^5 CFU/mL, unless otherwise mentioned) was separately shaken with Ag^+ and Ag^+/CO3^2−. Synthetic challenge water contains all the ions as prescribed by US NSF for challenge water studies. Source of carbonate ion is chosen one amongst the following: sodium carbonate, potassium carbonate or ammonium carbonate or a combination thereof. Source of Ag^+ is chosen one amongst the following: silver nitrate, silver acetate, silver sulfate, silver fluoride or a combination thereof. 1 mL of the sample was plated along with nutrient agar on a sterile petridish using the pour plate method after 1 h. After 48 hours of incubation of plating at 37° C., the colonies were counted and recorded.

S. aureus = conditions: 50 ppb silver ion; input 10^7 CFU/mL; cited from earlier work
MS2 bacteriophage [6] = test: Virus killing efficiency at higher virus input load (Example 11); assay type: cell-based; conditions: input virus concentration higher than 10^3 PFU/mL; silver ion alone
Procedure: Synthetic challenge water contains all the ions as prescribed by US NSF for challenge water studies. […] After one hour of contact time, 1 mL of the sample along with soft agar was plated on a sterile petridish using plaque assay method.

MS2 bacteriophage [7] = test: Kinetics of virus killing efficiency (Example 10); assay type: cell-based
Procedure: Synthetic water having the TDS between 300-500 ppm and pH=7±0.2 was used in the study. […] 1 mL of the sample along with soft agar was plated on a sterile petridish using plaque assay method after 15 min, 30 min, 45 min and 60 min of contact time.

E-coli [8] = test: Sterility of stored treated water (Example 7); assay type: cell-based; conditions: 24 h storage
E. coli [9] = test: Bacterial killing efficiency with varying humic acid (Example 4); assay type: cell-based
Procedure: In an aspect, 100 mL of synthetic water samples (typically containing bacterial concentration of 1×10^5 CFU/mL, unless otherwise mentioned) containing varying concentrations of humic acid were separately shaken with Ag^+(50 ppb) and Ag^+(50 ppb)/CO3^2−(20 ppm). Synthetic challenge water contains all the ions as prescribed by US NSF for challenge water studies. […] After one hour of standing, 1 mL from the samples was plated along with agar on a sterile petridish using pour plate method.

E-coli [10] = test: Bacterial killing efficiency of M^n+ and M^n+/CO3^2− (Example 5); assay type: cell-based; conditions: iron 200 ppb, zinc 1 ppm, carbonate 20 ppm; input 1×10^5 CFU/mL

For `[Cl][Ag]` [AgCl], the solubility in water [1] is listed as 1.9 µg/mL.

For `[Ag+]` [Ag^+, silver ion], the residual virus (MS2 bacteriophage [2]; higher silver ion concentration without SiO3^2− or CO3^2−) was “residual virus concentration is present”, the “residual viable bacterial count” value (E. coli [3]; 50 ppb Ag^+, input 1×10^5 CFU/mL, 1 h) was 10-50 CFU/mL and the “antibacterial activity, log reduction” value (E. coli [3]; silver ion below 40-50 ppb, synthetic challenge water) was 2-3 log reduction. The output bacterial count (E. coli [4]; sea salt 850 ppm) was 2000 CFU/mL, the output bacterial count (E. coli [4]; sea salt 1100 ppm) was 10,000 CFU/mL and the “minimum concentration of silver necessary for antibacterial activity” value (E. coli [5]) was 40-50 ppb. For the same compound, the S. aureus concentration (S. aureus (MTCC 96); silver ion up to 50 ppb, 1 h standing) was ≥ 10^3 CFU/mL, the “time to inactivate S. aureus” value (S. aureus) was “over 24 h” and the virus killing ability (MS2 bacteriophage [6]) was “unable to obtain complete virus killing ability”. For the same compound, the “time at which virus killing efficiency reaches a saturation value” (MS2 bacteriophage [7]; Ag^+ 50 ppb alone) was 1 h, the “bacterial count after storage” value (E-coli [8]; lower silver concentrations (<50 ppb)) was > 10^3 CFU/mL and the “bacterial count after storage” value (E-coli [8]; silver ion 50 ppb) was 0 CFU/mL. For the same compound, the “humic acid concentration up to which bacterial count is handled” value (E. coli [9]; 50 ppb Ag^+) was “up to 5 ppm” and the output count (E. coli [9]; humic acid 50 ppm, Ag^+ 50 ppb (composition with CO3^2− 20 ppm), input 1×10^5 CFU/mL) was “near to the input concentration”.

In the case of `O=C(O)O` [CO3^2−, carbonate], the virus killing efficiency (MS2 bacteriophage [2]; 20 ppm CO3^2−, no Ag^+, 1 h) is reported as 25%, the “reduction in bacterial count by itself” value (E. coli [3]; CO3^2− without Ag^+) is reported as “doesn't provide a significant reduction in bacterial count” and the viable bacteria count (S. aureus (MTCC 96); 20 ppm CO3^2− alone) is reported as > 10^5 CFU/mL. It also gave a virus killing efficiency (MS2 bacteriophage [7]; 20 ppm CO3^2−, standing time 1 h) of 20%.

In the case of `[Fe+3]` [Fe^3+], the “reduction in bacterial count” value (E-coli [10]) is reported as “does not offer any reduction in bacterial count”.
